Source: ChEMBL document CHEMBL1140657, “SAR of a novel 'Anthranilamide Like' series of VEGFR-2, multi protein kinase inhibitors for the treatment of cancer” (Bioorg Med Chem Lett, 2007)
Where “and” joins values, the source holds several entries; their conditions need not be identical. Equal entries are not always repeated.

Tests used:
[1] = target: Mast/stem cell growth factor receptor Kit (Homo sapiens, UniProt P10721); assay: Inhibition of human recombinant cKit by FRET assay
[2] = target: Serine/threonine-protein kinase B-raf (Homo sapiens, UniProt P15056); assay: Inhibition of b-Raf
[3] = AUC in ICR mouse at 25 mg/kg, po; assay type: ADME, organism-based; parameters: dose 25 mg/kg, route oral; details: plasma
[4] = tested on: COLO 205; assay: Inhibition of tumor growth in human Colo205 cells xenografted in athymic mouse at 50 mg/kg, po once daily after 9 days; assay type: functional; details: COLO 205, 216 h
[5] = AUC (1 to 5 hrs) in ICR mouse; assay type: ADME, organism-based; parameters: time 1-5 hr; details: plasma
[6] = tested on: MDA-MB-231; assay: Inhibition of tumor growth in human MDA-MB-231 cells xenografted in athymic mouse at 50 mg/kg, po once daily after 9 days; assay type: functional; details: MDA-MB-231, 216 h
[7] = target: Vascular endothelial growth factor receptor 2 (Homo sapiens, UniProt P35968); assay: Inhibition of VEGFR2
[8] = Volume of distribution at steady state in iv dosed ICR mouse; assay type: ADME, organism-based; details: in vivo, read-out: Vdss
[9] = tested on: NCI-H460; assay: Inhibition of tumor growth in human NCI-H460 NSCLC cells xenografted in athymic mouse at 50 mg/kg, po once daily after 9 days; assay type: functional; details: NCI-H460, 216 h
[10] = Cmax in ICR mouse at 25 mg/kg; assay type: ADME, organism-based; parameters: dose 25 mg/kg; details: in vivo
[11] = Cmax in ICR mouse at 15 mg/kg; assay type: ADME, organism-based; parameters: dose 15 mg/kg; details: in vivo
[12] = AUC (0 to 5 hrs) in ICR mouse at 25 mg/kg, po; assay type: ADME, organism-based; parameters: time < 4 hr, dose 25 mg/kg, route oral; details: plasma

Sequence of Mast/stem cell growth factor receptor Kit (P10721 whole entry): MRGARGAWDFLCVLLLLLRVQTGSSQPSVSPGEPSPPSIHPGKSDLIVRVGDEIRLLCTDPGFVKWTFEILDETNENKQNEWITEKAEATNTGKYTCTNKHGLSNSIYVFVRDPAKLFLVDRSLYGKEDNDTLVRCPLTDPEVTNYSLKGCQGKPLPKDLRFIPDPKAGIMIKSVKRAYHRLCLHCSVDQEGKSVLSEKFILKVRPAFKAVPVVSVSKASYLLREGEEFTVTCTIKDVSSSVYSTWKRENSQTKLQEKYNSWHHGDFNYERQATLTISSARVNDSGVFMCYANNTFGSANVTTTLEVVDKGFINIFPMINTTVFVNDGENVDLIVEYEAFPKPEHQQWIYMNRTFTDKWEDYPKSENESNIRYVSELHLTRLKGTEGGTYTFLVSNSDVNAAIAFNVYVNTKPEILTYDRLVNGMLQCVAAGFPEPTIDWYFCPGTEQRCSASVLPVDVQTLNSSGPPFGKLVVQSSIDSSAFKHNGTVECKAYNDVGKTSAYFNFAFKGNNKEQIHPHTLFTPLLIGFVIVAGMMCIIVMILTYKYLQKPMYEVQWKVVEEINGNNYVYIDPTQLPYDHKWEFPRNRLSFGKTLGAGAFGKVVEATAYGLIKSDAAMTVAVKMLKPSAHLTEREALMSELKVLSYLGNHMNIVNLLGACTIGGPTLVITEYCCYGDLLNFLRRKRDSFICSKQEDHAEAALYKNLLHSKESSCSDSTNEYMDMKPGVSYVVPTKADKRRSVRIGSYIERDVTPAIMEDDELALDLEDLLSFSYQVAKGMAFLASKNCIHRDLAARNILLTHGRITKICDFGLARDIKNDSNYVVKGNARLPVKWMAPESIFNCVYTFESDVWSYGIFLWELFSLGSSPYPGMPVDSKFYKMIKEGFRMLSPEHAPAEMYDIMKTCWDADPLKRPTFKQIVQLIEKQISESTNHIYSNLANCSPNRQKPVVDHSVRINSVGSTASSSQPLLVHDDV
Sequence of Serine/threonine-protein kinase B-raf (P15056 whole entry): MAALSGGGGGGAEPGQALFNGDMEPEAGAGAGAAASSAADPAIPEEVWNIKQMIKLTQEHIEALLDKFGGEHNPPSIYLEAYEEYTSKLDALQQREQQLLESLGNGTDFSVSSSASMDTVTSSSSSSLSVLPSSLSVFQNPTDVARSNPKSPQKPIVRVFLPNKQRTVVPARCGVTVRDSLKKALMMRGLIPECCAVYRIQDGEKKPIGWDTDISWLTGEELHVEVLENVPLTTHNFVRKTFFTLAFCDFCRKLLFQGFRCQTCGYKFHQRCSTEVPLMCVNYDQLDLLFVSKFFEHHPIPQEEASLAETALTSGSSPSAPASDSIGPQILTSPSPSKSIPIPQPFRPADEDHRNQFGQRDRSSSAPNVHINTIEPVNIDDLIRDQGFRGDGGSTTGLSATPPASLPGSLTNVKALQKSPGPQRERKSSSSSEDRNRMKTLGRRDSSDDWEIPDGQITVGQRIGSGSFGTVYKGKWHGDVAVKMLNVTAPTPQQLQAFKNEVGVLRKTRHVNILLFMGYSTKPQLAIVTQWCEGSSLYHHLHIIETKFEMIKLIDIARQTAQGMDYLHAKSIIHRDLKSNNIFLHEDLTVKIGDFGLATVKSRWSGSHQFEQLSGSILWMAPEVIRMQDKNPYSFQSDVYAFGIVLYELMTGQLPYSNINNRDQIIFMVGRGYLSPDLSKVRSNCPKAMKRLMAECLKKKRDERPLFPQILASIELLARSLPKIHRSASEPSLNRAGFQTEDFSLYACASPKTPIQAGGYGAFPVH
Sequence of Vascular endothelial growth factor receptor 2 (P35968 whole entry): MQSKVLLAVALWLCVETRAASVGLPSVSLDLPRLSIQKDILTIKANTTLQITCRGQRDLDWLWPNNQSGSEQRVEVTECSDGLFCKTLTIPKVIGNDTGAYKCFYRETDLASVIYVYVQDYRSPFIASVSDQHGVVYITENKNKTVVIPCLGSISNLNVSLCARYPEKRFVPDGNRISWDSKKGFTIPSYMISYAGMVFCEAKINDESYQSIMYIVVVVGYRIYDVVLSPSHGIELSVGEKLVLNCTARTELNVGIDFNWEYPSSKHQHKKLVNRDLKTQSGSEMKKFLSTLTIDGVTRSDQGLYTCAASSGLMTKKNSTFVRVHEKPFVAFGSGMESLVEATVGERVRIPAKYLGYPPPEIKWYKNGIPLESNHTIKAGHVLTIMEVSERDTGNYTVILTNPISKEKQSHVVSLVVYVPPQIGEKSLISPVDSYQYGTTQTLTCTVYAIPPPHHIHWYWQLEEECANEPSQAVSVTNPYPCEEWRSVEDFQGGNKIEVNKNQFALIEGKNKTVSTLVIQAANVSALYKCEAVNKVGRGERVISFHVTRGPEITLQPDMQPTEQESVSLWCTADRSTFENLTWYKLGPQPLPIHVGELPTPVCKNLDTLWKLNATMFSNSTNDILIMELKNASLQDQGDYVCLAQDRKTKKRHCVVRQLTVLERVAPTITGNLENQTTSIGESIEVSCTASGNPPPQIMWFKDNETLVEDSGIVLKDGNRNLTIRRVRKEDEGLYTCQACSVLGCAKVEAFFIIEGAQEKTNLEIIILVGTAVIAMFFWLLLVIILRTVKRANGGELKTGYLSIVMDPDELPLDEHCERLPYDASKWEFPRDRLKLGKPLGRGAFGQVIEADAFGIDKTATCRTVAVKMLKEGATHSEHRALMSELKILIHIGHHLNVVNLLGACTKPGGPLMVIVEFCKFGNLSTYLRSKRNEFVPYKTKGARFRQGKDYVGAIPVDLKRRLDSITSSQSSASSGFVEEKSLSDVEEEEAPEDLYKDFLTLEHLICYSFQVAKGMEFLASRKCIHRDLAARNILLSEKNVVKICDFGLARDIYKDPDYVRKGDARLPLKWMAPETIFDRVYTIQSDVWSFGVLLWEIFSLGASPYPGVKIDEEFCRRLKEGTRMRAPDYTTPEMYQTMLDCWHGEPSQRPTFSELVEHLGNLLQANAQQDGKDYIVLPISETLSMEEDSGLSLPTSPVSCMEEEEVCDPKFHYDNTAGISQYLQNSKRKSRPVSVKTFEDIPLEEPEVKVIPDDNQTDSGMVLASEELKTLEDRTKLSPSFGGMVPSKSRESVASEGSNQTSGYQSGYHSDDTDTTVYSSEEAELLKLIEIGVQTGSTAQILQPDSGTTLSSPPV

SMILES	IC50 [1]	IC50 [2]	other results
CS(=O)(=O)Nc1cc(CNc2ccccc2C(=O)Nc2ccc3c(c2)OC(F)(F)O3)ccn1	25 nM	594 nM	–
Nc1cc(CNc2ccccc2C(=O)Nc2ccc3c(c2)OC(F)(F)O3)ccn1	4 nM and 1 nM	634 nM and 274 nM	–
O=C(Nc1ccc2c(c1)OC(F)(F)O2)c1ccccc1NCc1ccnc(NCCO)c1	8 nM	112 nM	–
CN(C)c1nccc(CNc2ccccc2C(=O)Nc2ccc3c(c2)OC(F)(F)O3)n1	50 nM	349 nM	–
O=C(Nc1ccc2c(c1)OC(F)(F)O2)c1ccccc1NCc1ccnc(NCCCO)c1	9 nM	142 nM	–
O=C(NCCO)c1cc(CNc2ccccc2C(=O)Nc2ccc3c(c2)OC(F)(F)O3)ccn1	18 nM	397 nM	–
CNC(=O)Nc1cc(CNc2ccccc2C(=O)Nc2ccc3c(c2)OC(F)(F)O3)ccn1	5 nM	24 nM	–
O=C(NC1CC1)c1cc(CNc2ccccc2C(=O)Nc2ccc3c(c2)OC(F)(F)O3)ccn1	16 nM	192 nM	–
NC(=S)c1cc(CNc2ccccc2C(=O)Nc2ccc3c(c2)OC(F)(F)O3)ccn1	27 nM	100 nM	–
CNc1cc(CNc2ccccc2C(=O)Nc2ccc3c(c2)OC(F)(F)O3)ccn1	3 nM	100 nM	–
CCN(CC)CCCNC(=O)c1cc(CNc2ccccc2C(=O)Nc2ccc3c(c2)OC(F)(F)O3)ccn1	42 nM	175 nM	–
O=C(Nc1ccccc1)Nc1cc(CNc2ccccc2C(=O)Nc2ccc3c(c2)OC(F)(F)O3)ccn1	87 nM	39 nM	–
O=C(NCCCN1CCOCC1)c1cc(CNc2ccccc2C(=O)Nc2ccc3c(c2)OC(F)(F)O3)ccn1	45 nM	6830 nM	–
O=C(Nc1ccc2c(c1)OC(F)(F)O2)c1ccccc1NCc1ccnc(NCCCn2ccnc2)c1	20 nM	101 nM	–
O=C(Nc1ccc2c(c1)OC(F)(F)C(F)(F)O2)c1ccccc1NCc1ccncc1	19 nM	40 nM	AUC [3]: 6 µM·h
CCNC(=O)Nc1ccc(CNc2ncsc2C(=O)Nc2ccc3c(c2)OC(F)(F)O3)cn1	4 nM	–	inhibition in vivo at 50 mg/kg [4]: 86%; AUC(0-t) [5]: 255 µM·h; inhibition in vivo at 50 mg/kg [6]: 92%; IC50 [7]: 7 nM; Vd [8]: 0.24 L/kg; inhibition in vivo at 50 mg/kg [9]: 79%; Cmax [10]: 64 µM
COCCCNc1cc(CNc2ccccc2C(=O)Nc2ccc3c(c2)OC(F)(F)O3)ccn1	12 nM	156 nM	–
CNC(=O)Nc1ccc(CNc2c(C(=O)Nc3ccc(SC(F)(F)F)cc3)cnn2C)cn1	17 nM	154 nM	Cmax [11]: 3.6 µM; AUC(0-t) [5]: 11 µM·h; IC50 [7]: 62 nM
CNc1nccc(CNc2ccccc2C(=O)Nc2ccc3c(c2)OC(F)(F)O3)n1	3 nM	26 nM	–
CNC(=O)Nc1ccc(CNc2c(C(=O)Nc3ccc4c(c3)OC(F)(F)C(F)(F)O4)cnn2C)cn1	12 nM	–	Cmax [11]: 6 µM; AUC(0-t) [5]: 19 µM·h; IC50 [7]: 43 nM
N#Cc1cc(CNc2ccccc2C(=O)Nc2ccc3c(c2)OC(F)(F)O3)ccn1	37 nM	110 nM	–

SMILES	IC50 [1]	IC50 [2]	other results
CCNC(=O)c1cc(CNc2ccccc2C(=O)Nc2ccc3c(c2)OC(F)(F)O3)ccn1	25 nM	333 nM	–
COCCNC(=O)c1cc(CNc2ccccc2C(=O)Nc2ccc3c(c2)OC(F)(F)O3)ccn1	38 nM	497 nM	–
COCCNc1cc(CNc2ccccc2C(=O)Nc2ccc3c(c2)OC(F)(F)O3)ccn1	13 nM	104 nM	–
O=C(Nc1ccc2c(c1)OC(F)(F)C(F)(F)O2)c1ncsc1NCc1ccncc1	95 nM	2560 nM	–
CNC(=O)c1cc(CNc2ccsc2C(=O)Nc2ccc3c(c2)OC(F)(F)O3)ccn1	3 nM	61 nM	–
CNC(=O)c1cc(CNc2ccccc2C(=O)Nc2ccc3c(c2)OC(F)(F)O3)ccn1	5 nM	45 nM	AUC [3]: 40 µM·h
CNC(=O)Nc1ccc(CNc2ncsc2C(=O)Nc2ccc3c(c2)OC(F)(F)O3)cn1	5 nM	–	inhibition in vivo at 50 mg/kg [4]: 84%; AUC(0-t) [5]: 538 µM·h; inhibition in vivo at 50 mg/kg [6]: 90%; IC50 [7]: 3 nM; Vd [8]: 0.151 L/kg; inhibition in vivo at 50 mg/kg [9]: 70%; Cmax [10]: 124 µM
O=C(Nc1ccc2c(c1)OC(F)(F)O2)c1ccccc1NCc1ccnc(C2=NCCN2)c1	72 nM	153 nM	–
O=C(NCc1ccccc1)Nc1cc(CNc2ccccc2C(=O)Nc2ccc3c(c2)OC(F)(F)O3)ccn1	48 nM	232 nM	–
CNC(=O)c1cc(CNc2c(C(=O)Nc3ccc4c(c3)OC(F)(F)O4)cnn2C)ccn1	11 nM	199 nM	–
COCCCNC(=O)c1cc(CNc2ccccc2C(=O)Nc2ccc3c(c2)OC(F)(F)O3)ccn1	19 nM	1030 nM	–
CNC(=O)c1cc(CNc2ncsc2C(=O)Nc2ccc3c(c2)OC(F)(F)O3)ccn1	25 nM	1240 nM	–
O=C(Nc1ccc2c(c1)OC(F)(F)O2)c1ccccc1NCc1ccnc(NCCc2cnc[nH]2)c1	23 nM	146 nM	–
O=C(Nc1ccc2c(c1)OC(F)(F)O2)c1ccccc1NCc1ccnc(NCCOCCO)c1	4 nM	165 nM	–
CNC(=O)c1cc(CNc2ncsc2C(=O)Nc2ccc3c(c2)OC(F)(F)C(F)(F)O3)ccn1	12 nM	192 nM	–
CCNC(=O)Nc1cc(CNc2ccccc2C(=O)Nc2ccc3c(c2)OC(F)(F)O3)ccn1	7 nM	90 nM	AUC(0-t) at 4 h [12]: > 400 µM·h
CC(=O)Nc1cc(CNc2ccccc2C(=O)Nc2ccc3c(c2)OC(F)(F)O3)ccn1	1 nM	5 nM	–
CCN(CC)CCNC(=O)c1cc(CNc2ccccc2C(=O)Nc2ccc3c(c2)OC(F)(F)O3)ccn1	58 nM	138 nM	–
NC(=O)c1cc(CNc2ccccc2C(=O)Nc2ccc3c(c2)OC(F)(F)O3)ccn1	2 nM	34 nM	–
CS(=O)(=O)CCNC(=O)c1cc(CNc2ccccc2C(=O)Nc2ccc3c(c2)OC(F)(F)O3)ccn1	17 nM	221 nM	–
O=C(Nc1ccc2c(c1)CCC2)Nc1cc(CNc2ccccc2C(=O)Nc2ccc3c(c2)OC(F)(F)O3)ccn1	240 nM	64 nM	–
